#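 How tested: cells in 96-well plates exposed to compound for 48 hours at five concentrations. The concentration for 50% growth inhibition is given as GI50. At the TGI there is no net growth.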
# Legend:
# Assay in all cases: NCI anticancer screen, dose series, 48 h
# A498 renal = test system: A498 renal
# A549 NSCLC = test system: A549 NSCLC
# ACHN renal = test system: ACHN renal
# BT-549 breast = test system: BT-549 breast
# CAKI-1 renal = test system: CAKI-1 renal
# CCRF-CEM leukemia = test system: CCRF-CEM leukemia
# COLO 205 colon = test system: COLO 205 colon
# DU-145 prostate = test system: DU-145 prostate
# EKVX NSCLC = test system: EKVX NSCLC
# HCC-2998 colon = test system: HCC-2998 colon
# HCT-15 colon = test system: HCT-15 colon
# HL-60(TB) leukemia = test system: HL-60(TB) leukemia
# HOP-62 NSCLC = test system: HOP-62 NSCLC
# HOP-92 NSCLC = test system: HOP-92 NSCLC
# HS 578T breast = test system: HS 578T breast
# HT29 colon = test system: HT29 colon
# IGROV1 ovarian = test system: IGROV1 ovarian
# K-562 leukemia = test system: K-562 leukemia
# KM12 colon = test system: KM12 colon
# LOX IMVI melanoma = test system: LOX IMVI melanoma
# MALME-3M melanoma = test system: MALME-3M melanoma
# MCF7 breast = test system: MCF7 breast
# MDA-MB-231 breast = test system: MDA-MB-231 breast
# MDA-MB-435 = test system: MDA-MB-435
# MOLT-4 leukemia = test system: MOLT-4 leukemia
# NCI-H23 lung = test system: NCI-H23 lung
# NCI-H460 lung = test system: NCI-H460 lung
# NCI-H522 lung = test system: NCI-H522 lung
# NCI/ADR-RES ovarian = test system: NCI/ADR-RES ovarian
# OVCAR-3 ovarian = test system: OVCAR-3 ovarian
# OVCAR-5 ovarian = test system: OVCAR-5 ovarian
# OVCAR-8 ovarian = test system: OVCAR-8 ovarian
# PC-3 prostate = test system: PC-3 prostate
# RPMI-8226 leukemia = test system: RPMI-8226 leukemia
# RXF 393 renal = test system: RXF 393 renal
# SF-268 CNS = test system: SF-268 CNS
# SF-295 CNS = test system: SF-295 CNS
# SF-539 CNS = test system: SF-539 CNS
# SK-MEL-2 melanoma = test system: SK-MEL-2 melanoma
# SK-MEL-28 melanoma = test system: SK-MEL-28 melanoma
# SK-MEL-5 melanoma = test system: SK-MEL-5 melanoma
# SK-OV-3 ovarian = test system: SK-OV-3 ovarian
# SN12C renal = test system: SN12C renal
# SNB-19 CNS = test system: SNB-19 CNS
# SNB-75 CNS = test system: SNB-75 CNS
# SR leukemia = test system: SR leukemia
# SW-620 colon = test system: SW-620 colon
# TK-10 renal = test system: TK-10 renal
# U251 CNS = test system: U251 CNS
# UACC-257 melanoma = test system: UACC-257 melanoma
# UACC-62 melanoma = test system: UACC-62 melanoma
# UO-31 renal = test system: UO-31 renal
# 786-0 renal = test system: 786-0 renal
# HCT-116 colon = test system: HCT-116 colon
# M14 melanoma = test system: M14 melanoma
# NCI-H226 lung = test system: NCI-H226 lung
# OVCAR-4 ovarian = test system: OVCAR-4 ovarian
# T-47D breast = test system: T-47D breast
smiles,measurement,setting,value
Cc1ccc2cnc(N)c(C#Cc3cncc(C(=O)Nc4ccc(CN5CCN(C)CC5)c(C(F)(F)F)c4)c3)c2c1,GI50,A498 renal,291 nM
same,TGI,A498 renal,1010 nM
same,GI50,A549 NSCLC,485 nM
same,TGI,A549 NSCLC,1190 nM
same,GI50,ACHN renal,252 nM
same,TGI,ACHN renal,864 nM
same,GI50,BT-549 breast,991 nM
same,TGI,BT-549 breast,1730 nM
same,GI50,CAKI-1 renal,627 nM
same,TGI,CAKI-1 renal,1270 nM
same,GI50,CCRF-CEM leukemia,197 nM
same,TGI,CCRF-CEM leukemia,897 nM
same,GI50,COLO 205 colon,134 nM
same,TGI,COLO 205 colon,723 nM
same,GI50,DU-145 prostate,387 nM
same,TGI,DU-145 prostate,1030 nM
same,GI50,EKVX NSCLC,317 nM
same,TGI,EKVX NSCLC,1010 nM
same,GI50,HCC-2998 colon,582 nM
same,TGI,HCC-2998 colon,1300 nM
same,GI50,HCT-15 colon,174 nM
same,TGI,HCT-15 colon,731 nM
same,GI50,HL-60(TB) leukemia,212 nM
same,TGI,HL-60(TB) leukemia,0.908 µM
same,GI50,HOP-62 NSCLC,562 nM
same,TGI,HOP-62 NSCLC,1190 nM
same,GI50,HOP-92 NSCLC,77.1 nM
same,TGI,HOP-92 NSCLC,446 nM
same,GI50,HS 578T breast,274 nM
same,TGI,HS 578T breast,1390 nM
same,GI50,HT29 colon,106 nM
same,TGI,HT29 colon,724 nM
same,GI50,IGROV1 ovarian,231 nM
same,TGI,IGROV1 ovarian,869 nM
same,GI50,K-562 leukemia,5 nM
same,TGI,K-562 leukemia,619 nM
same,GI50,KM12 colon,5 nM
same,TGI,KM12 colon,538 nM
same,GI50,LOX IMVI melanoma,289 nM
same,TGI,LOX IMVI melanoma,934 nM
same,GI50,MALME-3M melanoma,145 nM
same,TGI,MALME-3M melanoma,620 nM
same,GI50,MCF7 breast,105 nM
same,TGI,MCF7 breast,718 nM
same,GI50,MDA-MB-231 breast,186 nM
same,TGI,MDA-MB-231 breast,839 nM
same,GI50,MDA-MB-435,166 nM
same,TGI,MDA-MB-435,805 nM
same,GI50,MOLT-4 leukemia,205 nM
same,TGI,MOLT-4 leukemia,936 nM
same,GI50,NCI-H23 lung,492 nM
same,TGI,NCI-H23 lung,1250 nM
same,GI50,NCI-H460 lung,212 nM
same,TGI,NCI-H460 lung,819 nM
same,GI50,NCI-H522 lung,249 nM
same,TGI,NCI-H522 lung,1020 nM
same,GI50,NCI/ADR-RES ovarian,746 nM
same,TGI,NCI/ADR-RES ovarian,2090 nM
same,GI50,OVCAR-3 ovarian,633 nM
same,TGI,OVCAR-3 ovarian,1290 nM
same,GI50,OVCAR-5 ovarian,579 nM
same,TGI,OVCAR-5 ovarian,1240 nM
same,GI50,OVCAR-8 ovarian,579 nM
same,TGI,OVCAR-8 ovarian,1220 nM
same,GI50,PC-3 prostate,679 nM
same,TGI,PC-3 prostate,1430 nM
same,GI50,RPMI-8226 leukemia,693 nM
same,TGI,RPMI-8226 leukemia,1970 nM
same,GI50,RXF 393 renal,632 nM
same,TGI,RXF 393 renal,1290 nM
same,GI50,SF-268 CNS,479 nM
same,TGI,SF-268 CNS,1270 nM
same,GI50,SF-295 CNS,828 nM
same,TGI,SF-295 CNS,1570 nM
same,GI50,SF-539 CNS,275 nM
same,TGI,SF-539 CNS,877 nM
same,GI50,SK-MEL-2 melanoma,660 nM
same,TGI,SK-MEL-2 melanoma,1630 nM
same,GI50,SK-MEL-28 melanoma,616 nM
same,TGI,SK-MEL-28 melanoma,1250 nM
same,GI50,SK-MEL-5 melanoma,813 nM
same,TGI,SK-MEL-5 melanoma,1510 nM
same,GI50,SK-OV-3 ovarian,869 nM
same,TGI,SK-OV-3 ovarian,1630 nM
same,GI50,SN12C renal,387 nM
same,TGI,SN12C renal,1070 nM
same,GI50,SNB-19 CNS,786 nM
same,TGI,SNB-19 CNS,1460 nM
same,GI50,SNB-75 CNS,716 nM
same,TGI,SNB-75 CNS,1440 nM
same,GI50,SR leukemia,162 nM
same,TGI,SR leukemia,1300 nM
same,GI50,SW-620 colon,131 nM
same,TGI,SW-620 colon,540 nM
same,GI50,TK-10 renal,642 nM
same,TGI,TK-10 renal,1290 nM
same,GI50,U251 CNS,590 nM
same,TGI,U251 CNS,1210 nM
same,GI50,UACC-257 melanoma,605 nM
same,TGI,UACC-257 melanoma,1380 nM
same,GI50,UACC-62 melanoma,628 nM
same,TGI,UACC-62 melanoma,1350 nM
same,GI50,UO-31 renal,589 nM
same,TGI,UO-31 renal,1220 nM
COc1cccc(C2CC(=O)c3cccn32)c1 (stereo not drawn),TGI,786-0 renal,> 100 µM
same,TGI,A498 renal,> 100000 nM
same,TGI,A549 NSCLC,> 100000 nM
same,TGI,ACHN renal,> 100000 nM
same,TGI,CAKI-1 renal,> 100000 nM
same,TGI,CCRF-CEM leukemia,> 100000 nM
same,TGI,COLO 205 colon,> 100000 nM
same,TGI,DU-145 prostate,> 100000 nM
same,TGI,EKVX NSCLC,> 100000 nM
same,TGI,HCC-2998 colon,> 100000 nM
same,TGI,HCT-116 colon,> 100 µM
same,TGI,HCT-15 colon,> 100000 nM
same,TGI,HL-60(TB) leukemia,96 µM
same,TGI,HOP-62 NSCLC,> 100000 nM
same,TGI,HOP-92 NSCLC,> 100000 nM
same,TGI,HS 578T breast,> 100000 nM
same,TGI,HT29 colon,> 100000 nM
same,TGI,IGROV1 ovarian,> 100000 nM
same,TGI,K-562 leukemia,> 100000 nM
same,TGI,KM12 colon,> 100000 nM
same,TGI,LOX IMVI melanoma,> 100000 nM
same,TGI,M14 melanoma,> 100 µM
same,TGI,MCF7 breast,> 100000 nM
same,TGI,MDA-MB-231 breast,> 100000 nM
same,TGI,MDA-MB-435,> 100000 nM
same,TGI,MOLT-4 leukemia,> 100000 nM
same,TGI,NCI-H226 lung,> 100 µM
same,TGI,NCI-H23 lung,> 100000 nM
same,TGI,NCI-H522 lung,> 100000 nM
same,TGI,NCI/ADR-RES ovarian,> 100000 nM
same,TGI,OVCAR-3 ovarian,> 100000 nM
same,TGI,OVCAR-4 ovarian,> 100 µM
same,TGI,OVCAR-5 ovarian,> 100000 nM
same,TGI,OVCAR-8 ovarian,> 100000 nM
same,TGI,PC-3 prostate,> 100000 nM
same,TGI,RPMI-8226 leukemia,> 100000 nM
same,TGI,RXF 393 renal,> 100000 nM
same,TGI,SF-268 CNS,> 100000 nM
same,TGI,SF-295 CNS,> 100000 nM
same,TGI,SF-539 CNS,> 100000 nM
same,TGI,SK-MEL-2 melanoma,> 100000 nM
same,TGI,SK-MEL-28 melanoma,> 100000 nM
same,TGI,SK-OV-3 ovarian,> 100000 nM
same,TGI,SN12C renal,> 100000 nM
same,TGI,SNB-19 CNS,> 100000 nM
same,TGI,SNB-75 CNS,> 100000 nM
same,TGI,SR leukemia,> 100000 nM
same,TGI,SW-620 colon,> 100000 nM
same,TGI,T-47D breast,> 100 µM
same,TGI,TK-10 renal,> 100000 nM
same,TGI,U251 CNS,> 100000 nM
same,TGI,UACC-257 melanoma,> 100000 nM
same,TGI,UACC-62 melanoma,> 100000 nM
same,TGI,UO-31 renal,> 100000 nM

# Reference: PubChem BioAssay (NCI)
